17 compounds from patent publication US10414763B2 (CANCER RESEARCH TECHNOLOGY LIMITED, priority 2014, dated 2019) can be followed below.

The target in the assay is T1, full-length human PKCι (Homo sapiens, UniProt P41743).
T1 construct: Recombinant, full-length human PKCι expressed in Sf21 insect cells is also commercially available; purchased EMD Millipore; host or cells: Sf21 insect cells (baculovirus)
T1 sequence (P41743 1-596): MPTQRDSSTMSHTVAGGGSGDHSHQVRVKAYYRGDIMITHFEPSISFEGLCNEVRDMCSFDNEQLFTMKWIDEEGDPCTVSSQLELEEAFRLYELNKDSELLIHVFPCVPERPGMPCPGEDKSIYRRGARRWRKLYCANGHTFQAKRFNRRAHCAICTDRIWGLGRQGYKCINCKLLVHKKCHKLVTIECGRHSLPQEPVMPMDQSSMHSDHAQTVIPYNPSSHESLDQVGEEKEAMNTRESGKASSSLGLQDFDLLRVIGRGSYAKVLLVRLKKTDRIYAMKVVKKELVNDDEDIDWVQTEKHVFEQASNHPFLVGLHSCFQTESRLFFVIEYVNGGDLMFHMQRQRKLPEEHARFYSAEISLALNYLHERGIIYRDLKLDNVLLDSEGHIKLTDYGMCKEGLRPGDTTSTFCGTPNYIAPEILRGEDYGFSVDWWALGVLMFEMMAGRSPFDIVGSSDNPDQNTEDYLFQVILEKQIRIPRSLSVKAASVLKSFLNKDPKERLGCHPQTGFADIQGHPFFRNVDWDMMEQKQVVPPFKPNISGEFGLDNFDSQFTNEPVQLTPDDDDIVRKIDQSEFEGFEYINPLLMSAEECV
Description: PKCι IC50 IMAP fluorescence polarisation assay, full-length enzyme, 150 μM ATP. Particulars: read-out: IC50 in IMAP assay against full length PKCi at 150 μM ATP. In kind it is biochemical. An excerpt: Assays are based on the ability of PKCι to phosphorylate a commercially available peptide substrate in vitro. The peptide substrate is FAM-PKCε pseudopeptide derived peptide, and comprises the amino acid sequence 5FAM-ERMRPRKRQGSVRRRV-NH2. Recombinant, full-length human PKCι expressed in Sf21 insect cells is also commercially available. Recombinant, kinase-domain human PKCι is expressed and purified in-house.
The procedure below explains how dose response curves for inhibitors of PKCι are obtained. The screen described is for a 384 well format but the assay can be adapted to 1536 or other formats as required.
Compounds to be tested are dissolved in 100% DMSO. Compounds are diluted as required to give a final concentration of 4% DMSO (v/v) in the assay. 1 μl is plated into 384 well black low-binding flat bottomed assay plates which are used immediately. Dilutions and additions of compound to assay plates are carried out using Matrix WellMate® and Matrix PlateMate® Plus liquid handling systems.
On the day of the screen PKCι/substrate working solution, and ATP working solution, are prepared in buffer containing 20 mM tris-HCl pH7.5, 10 mM MgCl2, 0.01% Triton X100, 250 μM EGTA and 1 mM DTT. The final concentration of PKCι used varies depending on the batch of protein but is typically 15 pM. The final concentration of peptide substrate in the assay is 100 nM. ATP is used at a final concentration of 150 μM or 25 μM in the assays containing full-length or kinase-domain PKCι respectively, which corresponds to five times or equal to the KM^APP for ATP for each enzyme, respectively. The final buffer concentration in the assay is 18 mM tris-HCl pH7.5, 9 mM MgCl2, 0.009% Triton X100, 225 μM EGTA and 0.9 mM DTT. Relevant controls are included, namely no compound and no enzyme. 5 μl PKCι/substrate working solution at 30 pM and 200 nM, respectively, is added to the wells, followed by 4 μl ATP working solution at 375 μM or 62.5 μM for full-length or kinase-domain PKCι respectively, using a 16 channel Matrix pipette. The reaction is allowed to incubate for 60 minutes at room temperature, before the reaction is stopped and developed by the addition of 20 μl IMAP™ development reagent (Molecular Devices). IMAP development reagent consists of 0.25% (v/v) IMAP progressive binding reagent, 17% (v/v) IMAP progressive binding buffer A and 3% (v/v) IMAP progressive binding buffer B. The plates are then incubated for 2 hours at room temperature before being read using an appropriate plate reader, for example a Molecular Devices HT Analyst or a BMG Pherastar. Plates are read using a fluorescence polarisation protocol with excitation at 485 nm and emission at 530 nm, and dichroic mirror at 505 nm.
Percentage inhibition values are calculated from fluorescence polarisation values, using the no compound and no enzyme control values as 0% and 100% inhibition, respectively. IC50 determination is performed with ExcelFit software (IDBS) using curve fit 205. Z′ factors are determined for each plate tested and are all above 0.5.
Alternatively, compounds were tested for their ability to inhibit the kinase activity of recombinant human baculovirus-expressed PKCiota using the immobilized metal-ion affinity particle (IMAP®) fluorescence polarization detection system (Molecular Devices, Sunnyvale, Calif.). PKCiota/IMAP® substrate mixture (2×) was prepared in 1×IMAP assay buffer (Molecular Devices) containing 1 mM DTT so that the final assay concentrations were 15 pM PKCiota (EMD Millipore, Billerica, Mass.) and 100 nM 5-fluorescein-amidite (FAM)-PKC ? -pseudosubstrate (5-FAM-ERMRPRKRQGSVRRRV-NH2) (Molecular Devices). The 2× working solution was added at 5 μL/well into a 384-well black, non-binding, flat bottom assay plate (Corning, Corning, N.Y.). […]
On the technique in general: Polarisation of emitted light reports the rotation of a fluorescent probe.
The term IC50 denotes the concentration that inhibits the measured activity by half. Consider `FC(F)(F)c1cc2c(-c3nc(N4CCC[C@H]5CNC[C@H]54)c4c(C5CC5)cncc4n3)ccnc2[nH]1` (racemic) [Example 8, (±)-5-Cyclopropyl-4-(4,7-cis)-octahydro-pyrrolo[3,4-b]pvridin-1-yl-2-(2-trifluoromethyl-1H-pyrrolo[2,3-b]pyridin-4-yl)-pyrido[3,4-d]pyrimidine], for which the IC50 is below 100 nM. The figure for `FC(F)(F)c1cc2c(-c3nc(N4CC[C@H]5NCC[C@H]54)c4c(C5CC5)cncc4n3)ccnc2[nH]1` (racemic) [Example 19, (±)-5-Cyclopropyl-4-(3,6-cis)-hexahydro-pyrrolo[3,2-b]pyrrol-1-yl-2-(2-trifluoromethyl-1H-pyrrolo[2,3-b]pyridin-4-yl)-pyrido[3,4-d]pyrimidine] is below 100 nM; for `Clc1ccccc1-c1cc2c(-c3nc(N4CC[C@@H]5CNCC[C@@H]54)c4c(C5CC5)cncc4n3)ccnc2[nH]1` (racemic) [Example 27, (±)-2-[2-(2-Chloro-phenyl)-1H-pyrrolo[2,3-b]pyridin-4-yl]-5-cyclopropyl-4-(3aR,7aS)-octahydro-pyrrolo[3,2-c]pyridin-1-yl-pyrido[3,4-d]pyrimidine] it is below 100 nM. `CC(C)(C)c1nc(-c2cc3c(-c4nc(N5CC[C@H]6NCC[C@H]65)c5c(C6CC6)cncc5n4)ccnc3[nH]2)cs1` (racemic) [Example 34, (±)-2-[2-(2-tert-Butyl-thiazol-4-yl)-1H-pyrrolo[2,3-b]pyridin-4-yl]-5-cyclopropyl-4-(3,6-cis)-hexahydro-pyrrolo[3,2-b]pyrrol-1-yl-pyrido[3,4-d]pyrimidine]: the IC50 was below 100 nM. On to `FC(F)(F)c1cc2c(-c3nc(N4CC[C@H]5NCC[C@H]54)c4c(C5CCC5)cncc4n3)ccnc2[nH]1` (racemic) [Example 54, (±)-5-Cyclobutyl-4-(3,6-cis)-hexahydro-pyrrolo[3,2-b]pyrrol-1-yl-2-(2-trifluoromethyl-1H-pyrrolo[2,3-b]pyridin-4-yl)-pyrido[3,4-d]pyrimidine], for which the IC50 was below 100 nM. For `Fc1cccnc1-c1cc2c(-c3nc(N4CC[C@H]5NCC[C@H]54)c4c(C5CC5)cncc4n3)ccnc2[nH]1` (racemic) [Example 56, (±)-5-Cyclopropyl-2-[2-(3-fluoro-pyridin-2-yl)-1H-pyrrolo[2,3-b]pyridin-4-yl]-4-(3,6- cis)-hexahydro-pyrrolo[3,2-b]pyrrol-1-yl-pyrido[3,4-d]pyrimidine], the IC50 was below 100 nM.

For `Fc1cccnc1-c1cc2c(-c3nc(N4CC[C@H]5NCC[C@H]54)c4c(C5CCC5)cncc4n3)ccnc2[nH]1` (racemic) [Example 57, (±)-5-Cyclobutyl-2-[2-(3-fluoro-pyridin-2-yl)-1H-pyrrolo[2,3-b]pyridin-4-yl]-4-(3,6- cis)-hexahydro-pyrrolo[3,2-b]pyrrol-1-yl-pyrido[3,4-d]pyrimidine], the half-maximal inhibitory concentration (IC50) is below 100 nM. On to `FC(F)(F)c1cc2c(-c3nc(N4CC[C@H]5NCCC[C@H]54)c4c(C5CC5)cncc4n3)ccnc2[nH]1` (racemic) [Example 63, (±)-5-Cyclopropyl-4-(3,7-cis)-octahydro-pyrrolo[3,2-b]pyridin-1-yl-2-(2-trifluoromethyl-1H-pyrrolo[2,3-b]pyridin-4-yl)-pyrido[3,4-d]pyrimidine], for which the IC50 was below 100 nM. Take `O[C@]12CCN(c3nc(-c4ccnc5[nH]c6ccccc6c45)nc4cncc(C5CCC5)c34)[C@H]1CCNC2` (racemic) [Example 76, (±)-(3aS,7aS)-1-[5-Cyclobutyl-2-(9H-pyrido[2,3-b]indol-4-yl)-pyrido[3,4-d]pyrimidin-4-yl]-octahydro-pyrrolo[3,2-c]pyridin-3a-ol]: the IC50 is below 100 nM. In the case of `CN(c1nc(-c2ccnc3[nH]c4ccccc4c23)nc2cncc(C3CCC3)c12)[C@@H]1CCNC[C@@]1(C)O` (racemic) [Example 77, (±)-(3,4-trans)-4-{[5-Cyclobutyl-2-(9H-pyrido[2,3-b]indol-4-yl)-pyrido[3,4-d]pyrimidin-4-yl]-methyl-amino}-3-methyl-piperidin-3-ol], the half-maximal inhibitory concentration (IC50) is below 100 nM. The figure for `FC(F)(F)c1cc2c(-c3nc(N4CC[C@H]5NCCC[C@H]54)c4c(C5CCC5)cncc4n3)ccnc2[nH]1` (racemic) [Example 80, (±)-5-Cyclobutyl-4-(3,7-cis)-octahydro-pyrrolo[3,2-b]pyridin-1-yl-2-(2-trifluoromethyl-1H-pyrrolo[2,3-b]pyridin-4-yl)-pyrido[3,4-d]pyrimidine] is below 100 nM; for `FC(F)(F)c1cc2c(-c3nc(N4CCCC5NCCCC54)c4c(C5CCC5)cncc4n3)ccnc2[nH]1` (racemic) [Example 81, 5-Cyclobutyl-4-(octahydro-[1,5]naphthyridin-1-yl)-2-(2-trifluoromethyl-1H-pyrrolo[2,3-b]pyridin-4-yl)-pyrido[3,4-d]pyrimidine] it is below 100 nM; for `Cc1cc2c(-c3nc(N4CC[C@H]5NCC[C@H]54)c4c(C5CC5)cncc4n3)ccnc2[nH]1` (racemic) [Example 82, (±)-5-Cyclopropyl-4-(3,6-cis)-hexahydro-pyrrolo[3,2-b]pyrrol-1-yl-2-(2-methyl-1H-pyrrolo[2,3-b]pyridin-4-yl)-pyrido[3,4-d]pyrimidine] it is below 100 nM. The figure for `Cc1cc2c(-c3nc(N4CC[C@H]5NCCC[C@H]54)c4c(C5CC5)cncc4n3)ccnc2[nH]1` (racemic) [Example 83, (±)-5-Cyclopropyl-2-(2-methyl-1H-pyrrolo[2,3-b]pyridin-4-yl)-4-(3,7-cis)-octahydro-pyrrolo [3,2-b]pyridin-1-yl-pyrido[3,4-d]pyrimidine] is below 100 nM; for `Cc1cc2c(-c3nc(N4CC[C@H]5NCC[C@H]54)c4c(C5CCC5)cncc4n3)ccnc2[nH]1` (racemic) [Example 84, (±)-5-Cyclobutyl-4-(3,6-cis)-hexahydro-pyrrolo[3,2-b]pyrrol-1-yl-2-(2-methyl-1H-pyrrolo[2,3-b]pyridin-4-yl)-pyrido[3,4-d]pyrimidine] it is below 100 nM; for `Cc1cc2c(-c3nc(N4CC[C@H]5NCCC[C@H]54)c4c(C5CCC5)cncc4n3)ccnc2[nH]1` (racemic) [Example 85, (±)-5-Cyclobutyl-2-(2-methyl-1H-pyrrolo[2,3-b]pyridin-4-yl)-4-(3,7-cis)-octahydro-pyrrolo [3,2-b]pyridin-1-yl-pyrido[3,4-d]pyrimidine] it is below 100 nM. Under `O[C@]12CCN(c3nc(-c4ccnc5[nH]c(C(F)(F)F)cc45)nc4cncc(C5CC5)c34)[C@H]1CCNC2` (racemic) [Example 104, (±)-(3aS,7aS)-1-[5-Cyclopropyl-2-(2-trifluoromethyl-1H-pyrrolo[2,3-b]pyridin-4-yl)-pyrido[3,4-d]pyrimidin-4-yl]-octahydro-pyrrolo [3,2-c]pyridin-3a-ol] stands below 100 nM.
